In US11390812B2, “Compound, composition, cured object, optically anisotropic body, and reflective film” (FUJIFILM Corporation, priority 2018, dated 2022):

How the values were obtained:
Format in all cases: physicochemical
[1] = Solubility evaluation in methyl ethyl ketone; details: room temperature (23° C.), precipitation concentration
Experimental: Solubility of each of the compounds in methyl ethyl ketone was evaluated. A solution in which the compound was ultrasonically dissolved or dissolved by heating was produced. […] Solutions were produced at various concentrations for each of the compounds, and solubility of the compound was evaluated according to the following criteria, using a concentration at which the compound was precipitated as a precipitation concentration. As a precipitation concentration became higher, solubility of the compound was more excellent.
A: a precipitation concentration was 20% by mass or more
B: a precipitation concentration was 10% by mass or more and less than 20% by mass
C: a precipitation concentration was less than 10% by mass

[2] = Measurement of solution absorption spectrum (colorability evaluation); details: chloroform solution, 1 cm cell; for λmax: wavelength of maximum light absorption coefficient in the region of 300 nm or more; for λ (1000): wavelength showing light absorption coefficient ε of 1000 in the region of 300 nm or more
Experimental: <Measurement of Solution Absorption Spectrum (Colorability Evaluation)>
A solution absorption spectrum of each of the compounds was measured using a spectrophotometer UV-3100PC manufactured by Shimadzu Corporation. Using chloroform as a solvent, a solution in which a predetermined amount of the compound was dissolved was measured in a 1 cm cell, and λmax and λ (1000) were calculated from the obtained spectrum and molecular weight. λmax represents a wavelength showing the maximum light absorption coefficient in the region of 300 nm or more, and λ (1000) represents a wavelength showing a light absorption coefficient ε of 1000 in the region of 300 nm or more. It can be evaluated that as wavelengths of λmax and λ (1000) became smaller (as wavelengths became shorter), colorability of the compound was more inhibited.
For example, λmax is preferably 310 nm or less. In addition, λ (1000) is preferably 350 nm or less and more preferably 325 nm or less.

[3] = Measurement of Δn (refractive index anisotropy), wedge-shaped liquid crystal cell; details: at 550 nm and 30° C.; for compounds liable to crystallize estimated from extrapolated values of mixtures with other liquid crystals
Source text: As a method of measuring the Δn, a method using a wedge-shaped liquid crystal cell described on page 202 of the Liquid Crystal Handbook (edited by Liquid Crystal Handbook Editing Committee, published by Maruzen Co., Ltd.) is generally used. In a case of a compound which is liable to crystallize, it is also possible to carry out evaluation with a mixture thereof with other liquid crystals and to estimate Δn from extrapolated values thereof.
The Δn corresponds to a measurement value at a wavelength of 550 nm at 30° C.
<Measurement of Δn (Refractive Index Anisotropy)>
Δn of each of the compounds was measured by a method using a wedge-shaped liquid crystal cell described on page 202 of the Liquid Crystal Handbook (edited by Liquid Crystal Handbook Editing Committee, published by Maruzen Co., Ltd.). In a case of the compound which is liable to crystallize, evaluation with a mixture thereof with other liquid crystals was carried out and Δn was estimated from extrapolated values thereof. The values in the table represent Δn's at 550 nm and 30° C.
Δn in Comparative Example 1 is a measurement value in a nematic phase.

[4] = Light fastness test of optically anisotropic film; details: film of compound 50 parts with B-2 50 parts; xenon, 5 million lx·h for 50 hours, 63° C., 50% RH, oxygen-blocking; transmittance change at 420 nm
Experimental: <Light Fastness Evaluation>
(Production of Optically Anisotropic Film)
A coating liquid having the following composition was prepared and applied to a rubbing-treated glass equipped with an alignment film by spin-coating. Each composition was irradiated with ultraviolet rays of 500 mJ/cm^2 through a filter that cuts light having a wavelength of 350 nm or less on a hot plate heated to a temperature until showing a nematic phase, and thereby an optically anisotropic film was produced.
The produced optically anisotropic film was irradiated with light using a Super Xenon Weather Meter SX75 manufactured by Suga Test Instruments Co., Ltd. Using KU-1000100 manufactured by King Seisakusho Co., Ltd. as a UV cut filter, a light fastness test was conducted by irradiation of 5 million l×h of light for 50 hours under an oxygen-blocking condition. A temperature of the test subject (a temperature inside the test device) was set to 63° C. A relative humidity in the test device was 50% RH.
A transmittance change of the optically anisotropic film before and after the light fastness test was measured. Light fastness in a case where a transmittance change at 420 nm was less than 5% was evaluated as A, and light fastness in a case where a transmittance change at 420 nm was 5% or more was evaluated as B. As a transmittance change became small, light fastness was more excellent.

Structure (SMILES)	Solubility [1]	λmax [2] [nm]	λ (1000) [2] [nm]	Δn [3]	Light fastness [4]
C=CC(=O)OCCc1ccc(C#Cc2ccc(CCc3ccc(C#Cc4ccc(CCOC(=O)C=C)cc4)cc3)cc2)cc1 [Compound A-1]	C (a precipitation concentration was less than 10% by mass)	309	320	0.30	A (a transmittance change at 420 nm was less than 5%)
C=CC(=O)OCCc1ccc(C#Cc2ccc(COc3ccc(C#Cc4ccc(CCOC(=O)C=C)cc4)cc3)cc2)cc1 [Compound A-2]	C (a precipitation concentration was less than 10% by mass)	309	327	0.34	A (a transmittance change at 420 nm was less than 5%)
C=CC(=O)OCCc1ccc(C#Cc2ccc(COc3ccc(C#Cc4ccc(CCOC(=O)C=C)cc4)cc3C)cc2)cc1 [Compound A-3]	B (a precipitation concentration was 10% by mass or more and less than 20% by mass)	308	327	0.34	A (a transmittance change at 420 nm was less than 5%)
C=CC(=O)OCCc1ccc(C#Cc2ccc(COc3ccc(C#Cc4ccc(CCOC(=O)C=C)cc4)cc3C(F)(F)F)cc2)cc1 [Compound A-4]	A (a precipitation concentration was 20% by mass or more)	309	325	0.36	A (a transmittance change at 420 nm was less than 5%)
C=CC(=O)OCCc1ccc(C#Cc2ccc(COc3ccc(C#Cc4ccc(CCOC(=O)C=C)cc4)cc3C(C)(C)C)cc2)cc1 [Compound A-5]	A (a precipitation concentration was 20% by mass or more)	308	329	0.33	A (a transmittance change at 420 nm was less than 5%)
C=CC(=O)OCCc1ccc(C#Cc2ccc(COc3ccc(C#Cc4ccc(CCOC(=O)C=C)cc4)cc3C(=O)OC)cc2)cc1 [Compound A-6]	A (a precipitation concentration was 20% by mass or more)	308	343	0.37	A (a transmittance change at 420 nm was less than 5%)
C=CC(=O)OCCc1ccc(C#Cc2ccc(COc3ccc(C#Cc4ccc(CCOC(=O)C=C)cc4)cc3C(=O)OC(C)(C)C)cc2)cc1 [Compound A-7]	A (a precipitation concentration was 20% by mass or more)	309	339	0.33	A (a transmittance change at 420 nm was less than 5%)
CC(=O)OCCCCCCCCCCOc1ccc(C#Cc2ccc(OC(=O)c3ccc(C#Cc4ccc(OCCCCCCCCCCOC(C)=O)c(F)c4)cc3)cc2)cc1F [Compound B-1, reference compound]	C (a precipitation concentration was less than 10% by mass)	315	364	0.25	B (a transmittance change at 420 nm was 5% or more)
